{"source": "paper PMC9537177", "about": "“A VEGFR targeting peptide-drug conjugate (PDC) suppresses tumor angiogenesis in a TACE model for hepatocellular carcinoma therapy” (Cell Death Discovery, 2022)", "key": {"[1]": {"test_system": "HT29 cells with low expression of VEGFR", "experiment": "Cell competitive binding (cell affinity) assay by FACS, HT29", "type": "cell-based, human", "conditions": "QR-KLU 0-20 μM with 10 μM FAM-QR", "procedure": "(§1) We then performed cell competitive binding assay to evaluate the affinity of the peptide conjugate to endothelial cell HUVEC with high expression of VEGFR [29]. FAM-labeled VEGF125−136 peptide QR was cultured with HUVEC cells for 4 h and then cellular penetration ability was tested by FACS. […] To further confirm our result, we then used HT29 cells to repeat this assay as HT29 cells are reported with low expression of VEGFR [29].\n(§2) Fig. 2 The cell affinity of QR-KLU with different cell lines. Cell penetration of peptide QR-KLU with HUVEC cells (A) and HT29 cells (B). The cells were respectively treated with PBS, 10 μM FAM-QR + 0 μM QR-KLU, 10 μM FAM-QR + 2.5 μM QR-KLU, 10 μM FAM-QR + 5 μM QR-KLU, 10 μM FAM-QR + 10 μM QR-KLU, 10 μM FAM-QR + 20 μM QR-KLU. C The median fluorescence of HUVEC and HT29 cells treated with different peptides as mention in Fig. 2A, B.\n(§3) The affinity ability of peptide QR-KLU to endothelial cells was determined by fluorescence-activated cell sorting (FACS) analysis. Briefly, the HUVEC cells were incubated on a 24-well plate for 24 h in growth medium. Then peptide QR-KLU in medium with different concentrations (0 μM, 2.5 μM, 5 μM, 10 μM, 20 μM) were respectively incubated with HUVEC cells for 30 min at 37 °C. Next, carboxy-fluorescein (FAM)-labelled-QR peptide (10 μM) were added to each well for 4 h at 37 °C. […] FACS was performed and the results were analyzed using FlowJo."}, "[2]": {"test_system": "HUVEC cells with high expression of VEGFR", "experiment": "Cell competitive binding (cell affinity) assay by FACS, HUVEC", "type": "cell-based, human", "conditions": "QR-KLU 0, 2.5, 5, 10, 20 μM pre-incubated 30 min at 37 °C, then 10 μM FAM-QR for 4 h", "procedure": "as §1, §2, §3"}, "VX2 liver tumor": {"test_system": "VX2 liver tumor", "experiment": "VX2 rabbit liver tumor model with TAE/TACE: tumor growth, necrosis, apoptosis, proliferation, angiogenesis", "type": "in vivo, New Zealand white rabbits", "procedure": "New Zealand white rabbits (2.5-3 kg) were purchased from the Laboratory Animal Center of Tongji Medical College of Huazhong University of Science and Technology (Wuhan, China). All the animal experimental procedures were performed in accordance with the National Institutes of Health Guidelines for the Care and Use of Laboratory Animals and the protocol was approved by the Ethics Committee of Tongji Medical College, Huazhong University of Science and Technology. Blinding was not possible in most animal experiments. The rabbit VX2 liver tumor model was established according to the method reported by Qian K et al.. […] The acquisition parameters of the sequence are as follows: […], TR 2750 ms, TE 65 ms, the field of view 120 mm × 120 mm, Slice thickness 3 mm in the transverse plane, matrix 152 × 152. The multi-vane technique was used to reduce artifacts and improve image quality, acquisition time 3 min […]; […] Seven days after TACE procedure, tumor size was evaluated again by MR scan and the tumor volume was calculated by formula: V = a * b^2/2 (a, long diameter; b, short diameter). And tumor growth rate was calculated by formula: […] Finally, the VX2 rabbits were sacrificed and the tumor tissues were harvested for biochemical analysis and histopathological examination. […] The IHC staining procedures were performed as previously described. Briefly, the sections were blocked in 3% H2O2 for 25 min and then incubated with goat serum for 15 min. Subsequently, the sections were first washed and incubated with anti-VEGF (1:200, Abcam, USA), and anti-CD31 (1:20; Abcam, USA) overnight at 4 °C, and then incubated with second antibody (Abcam, USA) at 37 °C for 50 min. Next, the sections were stained with 3, 3'-diaminobenzidine (DAB, Service bio, Wuhan […] Biotechnology Co., Ltd., China) for 6 min and rinsed and stained in hematoxylin for 30 s. The sections were then dehydrated in gradient alcohol and sealed in neutral resins. VEGF expression was assessed by semiquantitative IHC based on staining intensity and density, the staining intensity was scored as 0 (negative), 1 (weak), 2 (moderate), and 3 (strong), while the staining density was scored on the basis of the percentage of positively stained cells: 0 (0%), 1 (1-25%), 2 (26-50%), 3 (51-75%), and 4 (76-100%). The total VEGF IHC score was calculated by multiplying the intensity score by the density score. Microvessel density (MVD) was calculated according to the method developed by Weidner et al."}, "Huh 7 cells": {"test_system": "Huh 7 cells", "conditions": "10 μM, 24 h, Annexin V-PI FACS", "procedure": "Viable cells, early apoptotic cells, necrotic cells, late apoptotic cells were represented by Q4, Q3, Q2 and Q1 respectively.\n(§4) The apoptosis assay was performed according to the manufacturer’s instructions using an Annexin V: Fluorescein Isothiocyanate (FITC) Apoptosis Detection Kit I (BD Pharmingen™). Briefly, Huh 7 or HUVEC cells were seeded in a 12-well plate and allowed to grow for 24 h in medium with 10% FBS. Then, the cells were treated with the different peptides in medium with 5% FBS for 24 h’ incubation. The cells were harvested with 0.25% trypsin/EDTA, washed twice with PBS and suspended in 1 × binding buffer. The suspended cells were treated with FITC-labeled Annexin V and propidium iodide (PI) as the protocol indicated and then analyzed by flow cytometry to determine the apoptotic cells. The cells with positive fluorescence intensity signals for both FITC and PI were used for the apoptotic cell count."}, "[3]": {"experiment": "Therapeutic safety in VX2 tumor-bearing rabbits (organ H&E, serum biochemistry)", "description": "Twenty-four VX2 tumor-burdened rabbits were evenly divided into four groups. After fasting for 12 h, the rabbits were anesthetized by intravenous injection of pentobarbital sodium solution (2 wt.%, 30 mg/kg). The rabbit’s right femoral artery was dissected and a 4-F Cobra catheter (Cook, Inc., Bloomington, Indiana) was inserted into the celiac artery, hepatic arteriography was then performed under the guidance of digital subtraction angiography (DSA), and a 2.7-F coaxial microcatheter (Terumo, Tokyo, Japan) was super-selectively inserted into the tumor donor branch subsequently. The emulsion of drugs and lipiodol were slowly injected into the tumor-feeding artery through the above microcatheter at a speed of 0.5 mL/min. […] After obtaining all DSA images, the sheaths and catheters were removed.\nSeven days after treatment, the liver tumors, hearts, lungs, kidneys and spleens were harvested and fixed in 4% phosphate-buffered paraformaldehyde, the specimens were embedded in paraffin blocks and cut into 5‐μm‐thick sections. Following the manufacturer’s guidelines, the sections were stained with haematoxylin and eosin (H&E) for the evaluation of organ toxicity and tumor necrosis, Ki-67 staining and transfer-mediated dUTP nick end labeling (TUNEL) technique were used to detect tumor proliferation and apoptosis, respectively.\nBlood samples were collected before treatment and at 1, 3, 7 days after treatment. The blood samples were stood at room temperature for 30 min, and the serum was obtained by centrifugation (room temperature, 8000 rpm, 10 min) for assessment of alanine aminotransferase (ALT), aspartate aminotransferase (AST), total bilirubin (TBIL) and creatinine (CREA). The assays were performed using the commercially ready-made kits following the manufacturers’ instructions."}, "HUVEC cells [4]": {"test_system": "HUVEC cells", "experiment": "Annexin V-FITC/PI cell apoptosis assay, HUVEC", "type": "cell-based, human", "conditions": "10 μM, 24 h, Annexin V-PI FACS", "procedure": "The improved proapoptotic activity of QR-KLU was further confirmed by Annexin V-PI staining through FACS. Viable cells, early apoptotic cells, necrotic cells, late apoptotic cells were represented by Q4, Q3, Q2 and Q1 respectively. […] Besides, QR-KLU induced cell apoptosis in a dose-dependent manner. […] The percentage of apoptotic cells in KLU peptide at 20 μM were about 25% in both Huh7 cells and HUVEC cells.\nas §4\nSupplementary Figure S2. Cell apoptosis of HUVEC induced by different peptides. HUVEC cells were treated with PBS, 80μM QR, 20μM KLU, 5μM QR-KLU, 10μM QR-KLU for 24 hours before detection by FACS."}, "HUVEC cells [5]": {"test_system": "HUVEC cells", "experiment": "Wound-healing assay of HUVEC cells", "type": "cell-based, human", "conditions": "10 μM, 24 h", "procedure": "Wound-healing assay was performed according to the protocols reported by Liang et al.. Briefly, HUVEC cells were plated into 12-well plate and grown to create a confluent monolayer. The monolayer was grazed in a straight line to create a “scratch” with a pipette tip. Markings were created close to the scratch to be used as reference points. Then cells were treated with different peptides for 24 h at 37 °C. Images were collected with a Leica DFC480 camera on a phase-contrast microscope equipped with a 10 × objective at room temperature. The free area of the wound was measured by image software. Supplementary Figure S1. Wound healing assay to detect the cell migration influenced by different peptides."}, "[6]": {"conditions": "7 days after treatment, versus NS group"}}, "note": "“Also recorded” adds a separate entry of the source. Square brackets hold non-standard residues; d marks the D form. Peptide text beside a SMILES is read from it. Aib = CC(C)(N)C(=O)O; Ahx = NCCCCCC(=O)O"}
{"compound": "CC(=O)N[C@@H](CCC(N)=O)C(=O)N[C@@H](CCCCN)C(=O)N[C@@H](CCCNC(=N)N)C(=O)N[C@@H](CCCCN)C(=O)N[C@@H](CCCNC(=N)N)C(=O)N[C@@H](CCCCN)C(=O)N[C@@H](CCCCN)C(=O)N[C@@H](CO)C(=O)N[C@@H](CCCNC(=N)N)C(=O)N[C@@H](Cc1ccc(O)cc1)C(=O)N[C@@H](CCCCN)C(=O)N[C@@H](CO)C(=O)NCCCCCC(=O)N[C@@H](CCCCN)C(=O)N[C@@H](CC(C)C)C(=O)NC(C)(C)C(=O)N[C@@H](CCCCN)C(=O)N[C@@H](CC(C)C)C(=O)NC(C)(C)C(=O)N[C@@H](CCCCN)C(=O)N[C@@H](CCCCN)C(=O)N[C@@H](CC(C)C)C(=O)NC(C)(C)C(=O)N[C@@H](CCCCN)C(=O)N[C@@H](CC(C)C)C(=O)NC(C)(C)C(=O)N[C@@H](CCCCN)C(N)=O", "note": "[QR-KLU] (Ac-QKRKRKKSRYKS[Ahx]KL[Aib]KL[Aib]KKL[Aib]KL[Aib]K-NH2; N-terminus and C-terminus assumed)", "values": [{"measurement": "effect of QR-KLU on cell penetration of FAM-labeled peptide QR in HT29", "setting": "[1]", "value": "could not obviously affect cell penetration ability"}, {"measurement": "effect of QR-KLU on cell penetration of FAM-labeled peptide QR in HUVEC", "setting": "[2]", "value": "decreased cell penetration ability"}, {"measurement": "mean tumor volume at 7 days after TAE procedure", "setting": "VX2 liver tumor; 0.5 mL lipiodol emulsion into tumor-feeding artery, DOX 2 mg/kg, KLU 4 mg/kg, QR-KLU 4 mg/kg, MR images, 24 rabbits evenly in four groups, mean ± SD", "value": "1008.5 ± 370.7", "unit": "mm^3"}, {"measurement": "tumor growth rate (V7/V0 × 100%)", "setting": "VX2 liver tumor; 7 days after TAE, DOX 2 mg/kg, KLU 4 mg/kg, QR-KLU 4 mg/kg in lipiodol, NS group 276.4%", "value": "significantly lower than that of the NS group; also recorded: significantly lower than the other three groups"}, {"measurement": "VEGF IHC score in tumor", "setting": "VX2 liver tumor; 7 days after embolization, IHC intensity × density score, compared with NS group", "value": "significantly reduced the expression of CD31 and VEGF"}, {"measurement": "microvessel density (MVD), CD31 IHC", "setting": "VX2 liver tumor; 7 days after embolization, mean of three ×200 fields, compared with NS group", "value": "reduce the MVD in the tumor"}, {"measurement": "mean proportion of apoptotic cells in tumor (TUNEL)", "setting": "VX2 liver tumor; [6]", "value": "significantly higher than that in NS group; also recorded: highest"}, {"measurement": "mean proportion of proliferating cells in tumor (Ki67)", "setting": "VX2 liver tumor; [6]", "value": "significantly lower than that in NS group; also recorded: lowest"}, {"measurement": "mean tumor volume one day before TAE procedure", "setting": "VX2 liver tumor; baseline, MR images, V = a*b^2/2, VX2 rabbits, 24 rabbits evenly in four groups, mean ± SD", "value": "899.7 ± 394.0", "unit": "mm^3"}, {"measurement": "apoptosis rate in Huh 7 cells", "setting": "Huh 7 cells", "value": "over 60%"}, {"measurement": "H&E staining of hearts, lungs, kidneys and spleens", "setting": "[3]; 7 days after TACE, 4 mg/kg in lipiodol", "value": "no apparent tissue injury"}, {"measurement": "liver and renal toxicity (ALT, AST, TBIL, CREA in serum)", "setting": "[3]; before and 1, 3, 7 days after treatment, 4 mg/kg in lipiodol via TAE", "value": "no significant liver or renal toxicity"}, {"measurement": "apoptosis rate in HUVEC cells", "setting": "HUVEC cells [4]", "value": "over 40%"}, {"measurement": "cell migration of HUVEC (wound epithelial gap)", "setting": "HUVEC cells [5]", "value": "the wound epithelial gap was unchanged or even bigger"}]}
